According to ChEMBL document CHEMBL1201862, “PubChem BioAssay data set” (2004):
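Cells were grown in 96-well plates and exposed to each compound for 48 hours at five concentrations; endpoints were interpolated linearly between bracketing concentrations, or set to the highest concentration if not reached. Here, GI50 denotes the concentration required for 50% inhibition of growth.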 Active and inactive are the calls of the source. Rule as the data show it: active = GI50 up to about 1.1 µM and inactive = higher.

Legend:
Experiment in all cases: DTP human tumour cell line panel, 48 h
786-0 = tested on: 786-0
A549 = tested on: A549
ACHN = tested on: ACHN
BT-549 = tested on: BT-549
CAKI-1 = tested on: CAKI-1
CCRF-CEM = tested on: CCRF-CEM
COLO 205 = tested on: COLO 205
DU-145 = tested on: DU-145
EKVX = tested on: EKVX
HCC 2998 = tested on: HCC 2998
HCT-116 = tested on: HCT-116
HCT-15 = tested on: HCT-15
HL-60 = tested on: HL-60
HOP-62 = tested on: HOP-62
HT-29 = tested on: HT-29
Hs-578T = tested on: Hs-578T
IGROV-1 = tested on: IGROV-1
K562 = tested on: K562
KM12 = tested on: KM12
LOX IMVI = tested on: LOX IMVI
M14 = tested on: M14
MCF7 = tested on: MCF7
MDA-MB-231 = tested on: MDA-MB-231
MDA-MB-435 = tested on: MDA-MB-435
MDA-N = tested on: MDA-N
MOLT-4 = tested on: MOLT-4
Malme-3M = tested on: Malme-3M
NCI-H226 = tested on: NCI-H226
NCI-H23 = tested on: NCI-H23
NCI-H460 = tested on: NCI-H460
NCI-H522 = tested on: NCI-H522
NCI/ADR-RES = tested on: NCI/ADR-RES
OVCAR-3 = tested on: OVCAR-3
OVCAR-4 = tested on: OVCAR-4
OVCAR-5 = tested on: OVCAR-5
OVCAR-8 = tested on: OVCAR-8
PC-3 = tested on: PC-3
RPMI-8226 = tested on: RPMI-8226
RXF 393 = tested on: RXF 393
SF-268 = tested on: SF-268
SF-295 = tested on: SF-295
SK-MEL-28 = tested on: SK-MEL-28
SK-MEL-2 = tested on: SK-MEL-2
SK-MEL-5 = tested on: SK-MEL-5
SK-OV-3 = tested on: SK-OV-3
SN12C = tested on: SN12C
SNB-19 = tested on: SNB-19
SNB-75 = tested on: SNB-75
SR = tested on: SR
SW-620 = tested on: SW-620
TK-10 = tested on: TK-10
U-251 = tested on: U-251
UACC-257 = tested on: UACC-257
UO-31 = tested on: UO-31
A498 = tested on: A498
HOP-92 = tested on: HOP-92
SF-539 = tested on: SF-539
UACC-62 = tested on: UACC-62

**Q.** Which GI50 (786-0) does the source give for `CCCNC(=O)CCC(C)C1CCC2C3C(C[C@H](OC(C)=O)[C@]12C)[C@@]1(C)CCC2(C[C@H]1C[C@H]3OC(C)=O)OOC1(CC[C@]3(C)C4C[C@H](OC(C)=O)[C@]5(C)C(C(C)CCC(=O)NCCC)CCC5C4[C@H](OC(C)=O)C[C@@H]3C1)OO2` (stereo not given in full) here?
**A.** > 100 µM (inactive)

**Q.** And the GI50 (A549)?
**A.** > 100 µM (inactive)

**Q.** And the GI50 (ACHN)?
**A.** 4.37 µM (inactive)

**Q.** What about the GI50 (BT-549) of the same molecule?
**A.** > 100 µM (inactive)

**Q.** And the GI50 (CAKI-1)?
**A.** 46.5 µM (inactive)

**Q.** And the GI50 (CCRF-CEM)?
**A.** > 100 µM (inactive)

**Q.** And the GI50 (COLO 205)?
**A.** > 100 µM (inactive)

**Q.** What about the GI50 (DU-145) of the same molecule?
**A.** 53.2 µM (inactive)

**Q.** And the GI50 (EKVX)?
**A.** 57 µM (inactive)

**Q.** And the GI50 (HCC 2998)?
**A.** > 100 µM (inactive)

**Q.** And the GI50 (HCT-116)?
**A.** > 100 µM (inactive)

**Q.** What about the GI50 (HCT-15) of the same molecule?
**A.** > 100 µM

**Q.** What about the GI50 (HL-60) of the same molecule?
**A.** > 100 µM (inactive)

**Q.** What about the GI50 (HOP-62) of the same molecule?
**A.** 20.8 µM (inactive)

**Q.** What about the GI50 (HT-29) of the same molecule?
**A.** > 100 µM (inactive)

**Q.** And the GI50 (Hs-578T)?
**A.** 19 µM (inactive)

**Q.** And the GI50 (IGROV-1)?
**A.** 20.2 µM (inactive)

**Q.** What about the GI50 (K562) of the same molecule?
**A.** > 100 µM (inactive)

**Q.** And the GI50 (KM12)?
**A.** > 100 µM (inactive)

**Q.** What about the GI50 (LOX IMVI) of the same molecule?
**A.** > 100 µM (inactive)

**Q.** What about the GI50 (M14) of the same molecule?
**A.** 25.6 µM (inactive)

**Q.** And the GI50 (MCF7)?
**A.** > 100 µM (inactive)

**Q.** And the GI50 (MDA-MB-231)?
**A.** 11.3 µM (inactive)

**Q.** And the GI50 (MDA-MB-435)?
**A.** > 100 µM (inactive)

**Q.** What about the GI50 (MDA-N) of the same molecule?
**A.** > 100 µM (inactive)

**Q.** And the GI50 (MOLT-4)?
**A.** > 100 µM (inactive)

**Q.** And the GI50 (Malme-3M)?
**A.** 34.6 µM (inactive)

**Q.** What about the GI50 (NCI-H226) of the same molecule?
**A.** 20.8 µM (inactive)

**Q.** And the GI50 (NCI-H23)?
**A.** > 100 µM (inactive)

**Q.** What about the GI50 (NCI-H460) of the same molecule?
**A.** > 100 µM (inactive)

**Q.** What about the GI50 (NCI-H522) of the same molecule?
**A.** > 100 µM (inactive)

**Q.** And the GI50 (NCI/ADR-RES)?
**A.** > 100 µM (inactive)

**Q.** What about the GI50 (OVCAR-3) of the same molecule?
**A.** > 100 µM (inactive)

**Q.** And the GI50 (OVCAR-4)?
**A.** > 100 µM (inactive)

**Q.** And the GI50 (OVCAR-5)?
**A.** 46.5 µM (inactive)

**Q.** What about the GI50 (OVCAR-8) of the same molecule?
**A.** 23.8 µM (inactive)

**Q.** And the GI50 (PC-3)?
**A.** > 100 µM (inactive)

**Q.** And the GI50 (RPMI-8226)?
**A.** > 100 µM (inactive)

**Q.** What about the GI50 (RXF 393) of the same molecule?
**A.** > 100 µM (inactive)

**Q.** What about the GI50 (SF-268) of the same molecule?
**A.** 32.1 µM (inactive)

**Q.** What about the GI50 (SF-295) of the same molecule?
**A.** 60.4 µM (inactive)

**Q.** And the GI50 (SK-MEL-28)?
**A.** > 100 µM (inactive)

**Q.** What about the GI50 (SK-MEL-2) of the same molecule?
**A.** > 100 µM (inactive)

**Q.** What about the GI50 (SK-MEL-5) of the same molecule?
**A.** 36.8 µM (inactive)

**Q.** What about the GI50 (SK-OV-3) of the same molecule?
**A.** 55.5 µM (inactive)

**Q.** What about the GI50 (SN12C) of the same molecule?
**A.** > 100 µM (inactive)

**Q.** What about the GI50 (SNB-19) of the same molecule?
**A.** > 100 µM (inactive)

**Q.** What about the GI50 (SNB-75) of the same molecule?
**A.** 57.5 µM (inactive)

**Q.** And the GI50 (SR)?
**A.** > 100 µM (inactive)

**Q.** What about the GI50 (SW-620) of the same molecule?
**A.** > 100 µM (inactive)

**Q.** What about the GI50 (TK-10) of the same molecule?
**A.** > 100 µM (inactive)

**Q.** What about the GI50 (U-251) of the same molecule?
**A.** > 100 µM (inactive)

**Q.** And the GI50 (UACC-257)?
**A.** 31 µM (inactive)

**Q.** And the GI50 (UO-31)?
**A.** 0.101 µM (active)

**Q.** Which GI50 (RXF 393) does the source give for `CC(=O)OCC1OC(n2c(-c3ccccc3)cc(-c3ccccc3)c(C#N)c2=O)C(OC(C)=O)C(OC(C)=O)C1OC(C)=O` (stereo not given) here?
**A.** 56 µM (inactive)

**Q.** With `Nc1c2c(nc3ccccc13)-c1ccccc1CC2` as the molecule, how does the GI50 (786-0) read?
**A.** 3.52 µM (inactive)

**Q.** What about the GI50 (A498) of the same molecule?
**A.** 3.16 µM (inactive)

**Q.** What about the GI50 (ACHN) of the same molecule?
**A.** 3.56 µM (inactive)

**Q.** And the GI50 (BT-549)?
**A.** 13.2 µM (inactive)

**Q.** And the GI50 (CCRF-CEM)?
**A.** 3.4 µM (inactive)

**Q.** What about the GI50 (COLO 205) of the same molecule?
**A.** 3.76 µM (inactive)

**Q.** And the GI50 (HCC 2998)?
**A.** 1.43 µM (inactive)

**Q.** What about the GI50 (HCT-116) of the same molecule?
**A.** 3.76 µM (inactive)

**Q.** What about the GI50 (HCT-15) of the same molecule?
**A.** 3.96 µM

**Q.** And the GI50 (HL-60)?
**A.** 0.942 µM (active)

**Q.** What about the GI50 (HOP-92) of the same molecule?
**A.** 8.09 µM (inactive)

**Q.** What about the GI50 (Hs-578T) of the same molecule?
**A.** 16.4 µM (inactive)

**Q.** What about the GI50 (IGROV-1) of the same molecule?
**A.** 3.82 µM (inactive)

**Q.** And the GI50 (K562)?
**A.** 3.56 µM (inactive)

**Q.** And the GI50 (LOX IMVI)?
**A.** 4.34 µM (inactive)

**Q.** And the GI50 (MCF7)?
**A.** 1.85 µM (inactive)

**Q.** And the GI50 (MDA-MB-231)?
**A.** 3.88 µM (inactive)

**Q.** And the GI50 (MDA-N)?
**A.** 4.19 µM (inactive)

**Q.** And the GI50 (MOLT-4)?
**A.** 2.38 µM (inactive)

**Q.** What about the GI50 (Malme-3M) of the same molecule?
**A.** 8.49 µM (inactive)

**Q.** What about the GI50 (NCI-H226) of the same molecule?
**A.** 12.1 µM (inactive)

**Q.** And the GI50 (NCI-H23)?
**A.** 10.6 µM (inactive)

**Q.** What about the GI50 (NCI-H460) of the same molecule?
**A.** 2.12 µM (inactive)

**Q.** And the GI50 (NCI-H522)?
**A.** 8.67 µM (inactive)

**Q.** And the GI50 (NCI/ADR-RES)?
**A.** 5.32 µM (inactive)

**Q.** And the GI50 (OVCAR-8)?
**A.** 4.37 µM (inactive)

**Q.** And the GI50 (PC-3)?
**A.** 3.59 µM (inactive)

**Q.** And the GI50 (RPMI-8226)?
**A.** 4.09 µM (inactive)

**Q.** What about the GI50 (SF-268) of the same molecule?
**A.** 7.82 µM (inactive)

**Q.** What about the GI50 (SF-539) of the same molecule?
**A.** 3.24 µM (inactive)

**Q.** And the GI50 (SK-MEL-28)?
**A.** 10.4 µM (inactive)

**Q.** And the GI50 (SK-MEL-2)?
**A.** 11 µM (inactive)

**Q.** What about the GI50 (SK-MEL-5) of the same molecule?
**A.** 4.04 µM (inactive)

**Q.** What about the GI50 (SN12C) of the same molecule?
**A.** 4.06 µM (inactive)

**Q.** What about the GI50 (SR) of the same molecule?
**A.** 2.33 µM (inactive)

**Q.** What about the GI50 (SW-620) of the same molecule?
**A.** 3.15 µM (inactive)

**Q.** What about the GI50 (TK-10) of the same molecule?
**A.** 3.96 µM (inactive)

**Q.** And the GI50 (U-251)?
**A.** 4.17 µM (inactive)

**Q.** What about the GI50 (UACC-257) of the same molecule?
**A.** 2.82 µM (inactive)

**Q.** And the GI50 (UACC-62)?
**A.** 9.68 µM (inactive)
